Measured values published in US5418238A, “17β-substituted 4-aza-5α-androstan-3-one derivatives” (Farmitalia Carlo Erba S.R.L., priority 1992, dated 1995).

Tests used:
5α-reductase [1] = test: In vivo inhibition of 5α-reductase (testosterone-induced prostate hypertrophy in castrated rats); set-up: species or system rat; conditions: castrated testosterone-implanted rats, once daily for 7 days, ventral prostate weight
Protocol: The standard test for the antiandrogenic effect in rats was used. Prepuberal 22-day-old male rats were castrated via scrotal incision under light ether anaesthesia. On the seventh day after orchiectomy, androgen replacement was performed via subcutaneous implantation of 1 cm-long Silastic® tube (Dow-Corning, model No. 602-265) filled with a mixture of 25% testosterone and 75% cholesterol. […] Twenty four hours after the last dose the rats were sacrificed and the ventral prostate was removed and weighed. Control animals (testosterone controls) received the vehicle (0.5 ml/kg of 0.5% Methocel/0.4% Tween 80). One group of castrated rats was not implanted with testosterone (castrated controls).
The mean percentage of inhibition of the T-induced hypertrophic response of the prostate was calculated according to the following formula: […]
where WTC, WCC and WI are the mean prostate weight of testosterone control, castrated control and inhibitor treated group, respectively.

5α-reductase [2] = target: T1, 5α-reductase (Homo sapiens, UniProt P31213); test: In vitro assay of 5α-reductase inhibition (particulate fraction from hyperplastic human prostates, [14C]testosterone); type: biochemical; conditions: human prostate particulate fraction, 1 μM [14C]testosterone, pH 5.5, 37° C., 30 min
T1 construct: particulate fraction from homogenates of hyperplastic human prostates as the enzyme source; from tissue; host or cells: hyperplastic human prostate, particulate fraction (140,000 x g pellet of homogenate)
T1 sequence (P31213 1-254): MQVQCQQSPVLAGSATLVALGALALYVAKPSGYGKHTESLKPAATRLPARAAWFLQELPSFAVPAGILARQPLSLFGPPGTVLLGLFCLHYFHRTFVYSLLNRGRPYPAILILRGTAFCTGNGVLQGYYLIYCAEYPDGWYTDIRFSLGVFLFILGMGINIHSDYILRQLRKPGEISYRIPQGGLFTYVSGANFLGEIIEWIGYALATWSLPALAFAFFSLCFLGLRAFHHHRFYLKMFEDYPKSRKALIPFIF
Protocol: Inhibition of 5α-reductase was evaluated using the particulate fraction from homogenates of hyperplastic human prostates as the enzyme source. The particulate fraction was prepared centrifuging prostate homogenate at 140,000 x g. The resulting pellet, washed several times, was resuspended in buffer and stored at -80° C. in aliquots containing ≈10 mg protein/ml.
The assay for 5α-reductase was done in a final volume of 0.5 ml, in 40 mM TRIS-HCl buffer pH 5.5, containing I mM dithiothreitol, 5 mM NADPH, 1 μM [^14 C]testosterone, an aliquot of the enzyme preparation and various concentrations of the inhibitors. After 30 min incubation at 37° C. the reaction was terminated by addition of 2 ml cold diethyl ether and the organic phase was separated, evaporated under N2 and resuspended in ethyl acetate. Testosterone metabolites in this extract were separated in TLC on silica gel F 254 plates (Merck), using chloroform, acetone and n-hexane (2:1:2) as developing solvent system. Radioactivity on the plate was scanned and analysed from quantitative plots printed by a TLC-analyzer (Berthold). The fractional 5α-reduction of testosterone was calculated by relating the ^14 C-radioactivity in the 5α-reduced metabolites (5α-dihydrotesterone, […]) regions to the total radioactivity in the testosterone and 5α-reduced metabolites regions.

IC50 (5α-reductase [2]) [µM]	Structure (SMILES)	% Inhibition of prostate weight at 3 mg/kg/day p.o. (5α-reductase [1]) [%]
0.016	CC(NC(=O)[C@H]1CC[C@H]2[C@@H]3CC[C@H]4NC(=O)C=C[C@]4(C)[C@H]3CC[C@]12C)C(=O)C(F)(F)F (stereo partly drawn) [Compound 5, N-[1,1,1-trifluoro-2-oxobut-3-yl]3-oxo-4-aza-5α-androst-1-ene-17β-carboxamide]	58
0.008	CC(C)C(NC(=O)[C@H]1CC[C@H]2[C@@H]3CC[C@H]4NC(=O)C=C[C@]4(C)[C@H]3CC[C@]12C)C(=O)C(F)(F)F (stereo partly drawn) [Compound 7, N-[1,1,1-trifluoro-4-methyl-2-oxopent-3-yl]3-oxo-4-aza-5α-androst-1-ene-17β-carboxamide]	–
0.014	CC(C)(NC(=O)[C@H]1CC[C@H]2[C@@H]3CC[C@H]4NC(=O)C=C[C@]4(C)[C@H]3CC[C@]12C)C(=O)C(F)(F)F [Compound 22, N-[1,1,1-trifluoro-3-methyl-2-oxobut-3-yl]3-oxo-4-aza-5α-androst-1-ene-17β-carboxamide]	50
